Measurements published in patent US5854015A, “Method of making pure 3R-3'R stereoisomer of zeaxanthin for human ingestion” (priority 1995, dated 1998).

Legend:
[1] = Pasteurization of cell culture by heating; assay type: physicochemical; conditions: stabilizers added
Procedure: After the stabilizing compounds are added, a bacterial cell culture can be pasteurized by heating to 55° C. for 25 minutes.
After the stabilizing compounds are added, the cell culture is pasteurized by heating to 55° C. for 25 to 50 minutes.

chickens = conditions: cited from earlier work
[2] = Feeding of F. multivorum cell paste to birds or fish; assay type: in vivo; conditions: cell paste fed directly
Excerpt: Although this option has not yet been fully evaluated, it is possible that the Flavobacterium multivorum cells themselves, in intact form and possibly even in a viable state, may be suitable for direct ingestion by humans. A substantial number of human foods (including cheese, yogurt, beer, etc.) contain viable or killed-but-intact microbial cells, and there is no known pathogenicity associated with the F. multivorum cells isolated by Applied Food Biotechnology, Inc. They were isolated from a relatively cold artesian waterway, and since they are adapted to living in cold water, they cannot survive or reproduce well at temperatures inside the human body. […] When fed directly in the form of a cell paste to animals such as birds or fish, these cells appear to be well-suited as delivery vehicles for zeaxanthin.

[3] = in vivo
Excerpt: Birds in the C+ group are fed a standard commercial diet which contains several carotenoids; this diet also contains synthetic alpha-tocopherol (Vitamin E) as an additive.

[4] = per-weight basis; cited from earlier work
[5] = of all known carotenoids; cited from earlier work
[6] = cited from earlier work
[7] = macular degeneration; cited from earlier work

In the case of `CC1=C(/C=C/C(C)=C/C=C/C(C)=C/C=C/C=C(C)/C=C/C=C(C)/C=C/C2=C(C)C[C@@H](O)CC2(C)C)C(C)(C)C[C@H](O)C1` [zeaxanthin, 3,3'-dihydroxy-β-β-carotene], the “damage to zeaxanthin on pasteurization” value ([1]; 55° C. for 25 to 50 minutes) is listed as “without damaging the zeaxanthin”, the “damage to zeaxanthin on pasteurization” value ([1]; 55° C. for 25 minutes) is listed as “without damaging the zeaxanthin” and the “coloration of chickens fed cells and their zeaxanthin pigment” value (chickens; cells ATCC 21081 and 21588, U.S. Pat. No. 3,891,504) is listed as “caused suitable coloration”. The “coloring potency relative to lutein” value (chickens; per-weight basis, skin and egg yolks) was 2-3 times, the “absorption and tissue deposition after feeding” value [2] was “absorbed into the bloodstream and deposited into various tissues at expected and appropriate tissue locations” and the Concentration in retina [3] was 4.7 ng per mg retina. For the same compound, the “effectiveness in imparting color relative to lutein” value [4] was “several times more effective”.

In the case of `CC(C)=CCC/C(C)=C/C=C/C(C)=C/C=C/C(C)=C/C=C/C=C(C)/C=C/C=C(C)/C=C/C=C(\C)CCC=C(C)C` [lycopene], the singlet oxygen quenching [5] is given as “best singlet oxygen quencher of all known carotenoids”.

For `CC1=C(/C=C/C(C)=C/C=C/C(C)=C/C=C/C=C(C)/C=C/C=C(C)/C=C/C2=C(C)C(=O)CCC2(C)C)C(C)(C)CCC1=O` [Canthaxanthin], the “crystal formation in retinal tissue” value ([6]; in vivo) is given as “can cause crystal formation which can destroy retinal cells and tissue”, the “deposition in human skin” value ([6]; in vivo) is given as “is deposited in human skin” and the “displacement of lutein in retinal tissue” value ([6]; in vivo) is given as “can displace lutein”. For the same compound, the retinal toxicity ([6]; ingested) was “shown to cause retinal maculopathy” and the Concentration in retina [3] was 1.7 ng per mg retina.

In the case of `CC1=C(/C=C/C(C)=C/C=C/C(C)=C/CO)C(C)(C)CCC1` [Retinol (Vit. A)], the “benefits in the retina” value [7] is given as “very limited” and the Concentration in retina [3] is given as 5.8 ng per mg retina.

`Cc1c(O)cc2c(c1C)O[C@](C)(CCC[C@H](C)CCC[C@H](C)CCCC(C)C)CC2` [gamma-Tocopherol] showed a Concentration in retina [3] of 5.0 ng per mg retina.

In the case of `CC(C=CC=C(C)C=CC1=C(C)CCCC1(C)C)=CC=CC=C(C)C=CC=C(C)C=CC1C(C)=CC(O)CC1(C)C` (stereo not drawn) [alpha-Cryptoxanthan], the Concentration in retina [3] is reported as 1.4 ng per mg retina.

For `Cc1c(C)c2c(c(C)c1O)CCC(C)(CCCC(C)CCCC(C)CCCC(C)C)O2` (stereo not drawn) [alpha-Tocopherol], the “benefits in the retina” value [7] is listed as “very limited” and the Concentration in retina [3] is listed as 15.6 ng per mg retina.

In the case of `CC1=C(/C=C/C(C)=C/C=C/C(C)=C/C=C/C=C(C)/C=C/C=C(C)/C=C/C2=C(C)CCCC2(C)C)C(C)(C)CCC1` [β-Carotene], the “benefits in the retina” value [7] is listed as “very limited” and the “Detection of β-Carotene in retinas” value [3] is listed as “No β-Carotene was detected”.

`CC1=C[C@H](O)CC(C)(C)[C@H]1/C=C/C(C)=C/C=C/C(C)=C/C=C/C=C(C)/C=C/C=C(C)/C=C/C1=C(C)C[C@@H](O)CC1(C)C` [Lutein] showed a Concentration in retina [3] of 1.0 ng per mg retina.
